# Measurements from PubChem BioAssay AID1259407 (Chemical Carcinogenesis Research Information System (CCRIS), 2018).
# The source made the active and inactive calls. No rule for the calls is given here.
# Test system: CCRIS mutagenicity, Ames/micronucleus/aberration tests
# Experiment: CCRIS mutagenicity studies
# [1] = Test System: AMES SALMONELLA TYPHIMURIUM, Strain/Indicator: TA98, Metabolic Activation: NONE, Method: STANDARD PLATE
# [2] = Test System: AMES SALMONELLA TYPHIMURIUM, Strain/Indicator: TA100, Metabolic Activation: NONE, Method: STANDARD PLATE
# [3] = Test System: AMES SALMONELLA TYPHIMURIUM, Strain/Indicator: TA1535, Metabolic Activation: NONE, Method: STANDARD PLATE
# [4] = Test System: AMES SALMONELLA TYPHIMURIUM, Strain/Indicator: TA98, Metabolic Activation: RAT, LIVER, S-9, AROCLOR 1254, Method: STANDARD PLATE
# [5] = Test System: AMES SALMONELLA TYPHIMURIUM, Strain/Indicator: TA100, Metabolic Activation: RAT, LIVER, S-9, AROCLOR 1254, Method: STANDARD PLATE
# [6] = Test System: AMES SALMONELLA TYPHIMURIUM, Strain/Indicator: TA1537, Metabolic Activation: NONE, Method: STANDARD PLATE
# [7] = Test System: AMES SALMONELLA TYPHIMURIUM, Strain/Indicator: TA1537, Metabolic Activation: RAT, LIVER, S-9, AROCLOR 1254, Method: STANDARD PLATE
smiles,measurement,setting,value
O=C1c2ccccc2-c2c1c1ccccc1c(=O)n2CCNCCO,mutagenic call,"Test System: AMES SALMONELLA TYPHIMURIUM, Strain/Indicator: TA97, Metabolic Activation: NONE, Method: STANDARD PLATE",inactive; negative
same,mutagenic call,"Test System: AMES SALMONELLA TYPHIMURIUM, Strain/Indicator: TA97, Metabolic Activation: RAT, LIVER, S-9, PHENOBARBITAL AND ALPHA-NAPHTHOFLAVONE, Method: STANDARD PLATE",inactive; negative
same,mutagenic call,[1],inactive; negative
same,mutagenic call,"Test System: AMES SALMONELLA TYPHIMURIUM, Strain/Indicator: TA98, Metabolic Activation: RAT, LIVER, S-9, PHENOBARBITAL AND ALPHA-NAPHTHOFLAVONE, Method: STANDARD PLATE",inactive; negative
same,mutagenic call,[2],inactive; negative
same,mutagenic call,"Test System: AMES SALMONELLA TYPHIMURIUM, Strain/Indicator: TA100, Metabolic Activation: RAT, LIVER, S-9, PHENOBARBITAL AND ALPHA-NAPHTHOFLAVONE, Method: STANDARD PLATE",inactive; negative
same,mutagenic call,[3],inactive; negative
same,mutagenic call,"Test System: AMES SALMONELLA TYPHIMURIUM, Strain/Indicator: TA1535, Metabolic Activation: RAT, LIVER, S-9, PHENOBARBITAL AND ALPHA-NAPHTHOFLAVONE, Method: STANDARD PLATE",inactive; negative
Cc1cc(N)cc(C)c1N,mutagenic call,[1],inactive; negative
same,mutagenic call,[4],inactive; negative
same,mutagenic call,[2],inactive; negative
same,mutagenic call,[5],inactive; negative
same,mutagenic call,[3],inactive; negative
same,mutagenic call,"Test System: AMES SALMONELLA TYPHIMURIUM, Strain/Indicator: TA1535, Metabolic Activation: RAT, LIVER, S-9, AROCLOR 1254, Method: STANDARD PLATE",inactive; negative
same,mutagenic call,[6],inactive; negative
same,mutagenic call,[7],inactive; negative
same,mutagenic call,"Test System: AMES SALMONELLA TYPHIMURIUM, Strain/Indicator: TA1538, Metabolic Activation: NONE, Method: STANDARD PLATE",inactive; negative
same,mutagenic call,"Test System: AMES SALMONELLA TYPHIMURIUM, Strain/Indicator: TA1538, Metabolic Activation: RAT, LIVER, S-9, AROCLOR 1254, Method: STANDARD PLATE",inactive; negative
O=S(=O)(O)N(O)S(=O)(=O)O,mutagenic call,"Test System: AMES SALMONELLA TYPHIMURIUM, Strain/Indicator: G46, Metabolic Activation: RAT, LIVER, S-9, AROCLOR 1254, Method: STANDARD PLATE",active; positive
same,mutagenic call,[5],active; positive
O.O=P([O-])([O-])[O-].[Fe+3],mutagenic call,"Test System: MOUSE LYMPHOMA, Strain/Indicator: L5178Y (TK+/TK-), Metabolic Activation: NONE, Method: SUSPENSION/PLATE",inactive; negative. reevaluation of results: negative
same,mutagenic call,"Test System: MOUSE LYMPHOMA, Strain/Indicator: L5178Y (TK+/TK-), Metabolic Activation: RAT, LIVER, S-9, AROCLOR 1254, Method: SUSPENSION/PLATE",active; positive
same,mutagenic call,"Test System: Mouse lymphoma, Strain/Indicator: L5178Y (tk+/tk-), Metabolic Activation: Rat, Liver, S-9, Aroclor 1254, Method: Suspension/plate",active; equivocal (previous evaluation positive)
[2H]C([2H])([2H])N=NO,mutagenic call,[3],active; positive
same,mutagenic call,"Test System: E. COLI, Strain/Indicator: WP2, Metabolic Activation: NONE, Method: STANDARD PLATE",active; positive
same,mutagenic call,"Test System: E. COLI, Strain/Indicator: WP2 UVRA, Metabolic Activation: NONE, Method: STANDARD PLATE",active; positive
Nc1cc2nc3ccccc3nc2cc1O,mutagenic call,"Test System: AMES SALMONELLA TYPHIMURIUM, Strain/Indicator: TA98(1,8-DNP6), Metabolic Activation: NONE, Method: PREINCUBATION",inactive; negative
same,mutagenic call,"Test System: AMES SALMONELLA TYPHIMURIUM, Strain/Indicator: TA98(1,8-DNP6), Metabolic Activation: S-9, Method: PREINCUBATION",inactive; negative
same,mutagenic call,"Test System: AMES SALMONELLA TYPHIMURIUM, Strain/Indicator: TA98, Metabolic Activation: NONE, Method: PREINCUBATION",inactive; negative
same,mutagenic call,[1],active; positive
same,mutagenic call,[4],active; positive
same,mutagenic call,"Test System: AMES SALMONELLA TYPHIMURIUM, Strain/Indicator: TA98, Metabolic Activation: S-9, Method: PREINCUBATION",inactive; negative
same,mutagenic call,"Test System: AMES SALMONELLA TYPHIMURIUM, Strain/Indicator: TA100(OAT-), Metabolic Activation: NONE, Method: PREINCUBATION",inactive; negative
same,mutagenic call,"Test System: AMES SALMONELLA TYPHIMURIUM, Strain/Indicator: TA100(OAT-), Metabolic Activation: S-9, Method: PREINCUBATION",inactive; negative
same,mutagenic call,"Test System: AMES SALMONELLA TYPHIMURIUM, Strain/Indicator: TA100, Metabolic Activation: NONE, Method: PREINCUBATION",inactive; negative
same,mutagenic call,[2],inactive; negative
same,mutagenic call,[5],active; positive
same,mutagenic call,"Test System: AMES SALMONELLA TYPHIMURIUM, Strain/Indicator: TA100, Metabolic Activation: S-9, Method: PREINCUBATION",inactive; negative
same,mutagenic call,[6],active; positive
same,mutagenic call,[7],active; positive
same,mutagenic call,"Test System: AMES SALMONELLA TYPHIMURIUM, Strain/Indicator: YG1024, Metabolic Activation: PLANT CELL-FREE EXTRACT, Method: PREINCUBATION",active; positive
same,mutagenic call,"Test System: AMES SALMONELLA TYPHIMURIUM, Strain/Indicator: YG1024, Metabolic Activation: S-9, Method: PREINCUBATION",active; positive
same,mutagenic call,"Test System: AMES SALMONELLA TYPHIMURIUM, Strain/Indicator: YG1029, Metabolic Activation: S-9, Method: PREINCUBATION",active; positive
